Results: patent US11427588B2, “Compositions and methods for treating neurodegenerative diseases and cardiomyopathy” (THE REGENTS OF THE UNIVERSITY OF CALIFORNIA, priority 2013, dated 2022)
“And” between values parts separate entries of the source, which are not always exact repeats. Equal values may be shown once.

How the values were obtained:
PINK1^G309D = PINK1^G309D (Homo sapiens, UniProt Q9BXM7, G309D); test: Parkin mitochondrial translocation assay in HeLa cells after CCCP depolarization; format: cell-based; design: transfection with MitoGFP, mCherry Parkin, and full length PINK1FLAG3 in a 1:4:2 ratio; expressed in transfected cells; host or cells: HeLa; conditions: for 50% Recruitment Times (R50) mCherry Parkin to depolarized mitochondria: HeLa cells with PINK1^G309D, mCherryParkin, mitoGFP, 48 hours, 25 μM; for delta co-localization: PINK1^G309D expressing cells, algorithm quantified
Experimental: (§1) Parkin phosphorylation and mitochondrial translocation assay: HeLa cells were grown in DMEM supplemented with 10% FBS. Log phase cells were plated in 24 well plates with glass coverslips (Mattek) pretreated with fibronectin. Cells were pretreated with 50 μM of the indicated compound, followed by transfection with MitoGFP, mCherry Parkin, and full length PINK1FLAG3 in a 1:4:2 ratio using Fugene 6 (Promega). Fields of cells were selected by expression of MitoGFP (6 fields/well-3 wells/condition) and imaged at five-minute intervals following depolarization with 5 μM CCCP. Quantification was performed according to published protocols^3 and by creation of a Matlab based script.
(§2) Our ability to enhance PINK1 activity in-vitro using KTP led us to investigate means by which to achieve enhanced activity in cells expressing PINK1. […] We treated cells with either kinetin or adenine (FIG. 2A) and measured Parkin localization following mitochondrial depolarization with CCCP (FIG. 2B). HeLa cells, which have low levels of endogenous PINK1 and PARKIN, were transfected with wildtype or PINK1^G309D, mCherryParkin, and mitoGFP. After 48 hours of incubation with 25 μM adenine, kinetin or equivalent DMSO, we imaged CCCP-mediated depolarization of mitochondria (FIGS. 2C, 2D) and calculated the percentage of GFP labelled mitochondria with mCherryParkin associated (FIG. 2E). In line with previous reports^3, transfection of PINK1^G309D slowed the 50% recruitment (R50) time of mCherryParkin to depolarized mitochondria (23±2 min vs 15±1 min R50) (FIGS. 2C-2E Table.2). […] Using an algorithm to accurately quantify the time dependent change in co-localization, we calculated that PINK1^wt expressing cells achieved a mean change in co-localization of 0.112 with DMSO or adenine and 0.13 with kinetin treatment (FIGS. 7A-7F); PINK1^G309D expressing cells treated with DMSO or adenine achieved delta co-localization of 0.076, but upon addition of kinetin returned to near-PINK1-wildtype levels (0.124).
(§3) To test the PINK1-dependency of our findings, we assayed PINK1 activity by using phospho specific antibodies raised against Parkin's PINK1-specific S65 phosphosite^21 after immuno-precipitating Parkin. […] To test whether kinetin stimulated Parkin localization was due to reversible binding of kinetin to PINK1, we treated the cells with fresh medium for 96 hours before performing a new recruitment assay. Similar recruitment rates were observed following the washout (FIG. 2F). […] We followed previously published methods to calculate the percentage of GFP labeled mitochondria with mCherryParkin associated. Transfection of G309DPINK11-581 slowed the rate of mCherryParkin recruitment (23+2 min vs 15+1 min R50) as per reported results. The addition of kinetin, but not adenine, increased the rate of mCherryParkin recruitment in wt cells from 15+1 to 10+2 min and G309D cells from 23+2 to 15+2 min. We then incubated the cells with kinetin for 2 days, washed the cells with fresh medium then performed the recruitment assay and saw the same increase in the rate of recruitment. […] We developed an algorithm to calculate the change in co-localization. The wtPINK1 cells achieved a mean change in co-localization of 0.11 with DMSO, adenine or kinetin treatment. G309DPINK1 expressing cells treated with DMSO or Adenine, achieved delta co-localization of 0.075 but upon addition of kinetin indicating rescue to the wt level (0.11) (P>0.05).

PINK1^wt = PINK1^wt (Homo sapiens, UniProt Q9BXM7); test: as above; format: cell-based; design: transfection with MitoGFP, mCherry Parkin, and full length PINK1FLAG3 in a 1:4:2 ratio; expressed in transfected cells; host or cells: HeLa; conditions: for 50% Recruitment Times (R50) mCherry Parkin to depolarized mitochondria: HeLa cells with PINK1^wt, mCherryParkin, mitoGFP, 48 hours, 25 μM; for mean change in co-localization: PINK1^wt expressing cells, algorithm quantified
Experimental: as §1, §2, §3

PINK1wt mice = test: Heart health and performance in mice treated from birth; format: in vivo
Experimental: PINK1 expression is protective in several mouse models of heart failure. PINK1wt expression will block pathological hypertrophy, increase heart fractional shortening, and prevent ischemia induced death of heart tissue. To assay the effect of kinetin PINK1 wt or PINK1−/− mice were treated with vehicle, adenine or kinetin from birth following published protocols for administration of kinetin (Hims et al., 2007; Shetty et al., 2011). The mice were sacrificed and whole hearts analyzed, and isolated cardiomyocytes from mice at appropriate time periods (e.g. 2 and 6 months). O2 consumption, mitochondrial integrity (mtDNA abundance, mitochondrial capacity and JC-1 fluorescence) caspase 3/7 cleavage activity and TUNEL staining were measured to assess the health of these tissues. According to published results (Billia et al., 2011; Chen and Dorn, 2013), PINK1 activity is essential for normal 02 consumption and maintenance of mitochondrial integrity. Decreased 02 consumption and mitochondrial integrity in PINK1−/− mice was compared to PINK1wt mice. […] Additionally, caspase 3/7 cleavage activity and TUNEL staining of the left ventricle were increased in PINK1−/− mice derived cardiomyocytes compared to PINK1wt.
In addition to these analyses we analyzed the performance of the heart in whole animals. We utilized the same procedure as above and treated either PINK1wt or PINK1−/− mice with vehicle, adenine or kinetin from birth following published protocols for administration of kinetin (Hims et al., 2007; Shetty et al., 2011). […] These characteristics of pathological hypertrophy indicate heart failure in the PINK1−/− mice will not increase as dramatically in PINK1wt mice (Billia et al., 2011). […] These experiments indicate that amplification of PINK1 activity by treatment with kinetin can block age-induced loss in heart function.

PINK1^G309D, sequence (Q9BXM7 78-581 G309D): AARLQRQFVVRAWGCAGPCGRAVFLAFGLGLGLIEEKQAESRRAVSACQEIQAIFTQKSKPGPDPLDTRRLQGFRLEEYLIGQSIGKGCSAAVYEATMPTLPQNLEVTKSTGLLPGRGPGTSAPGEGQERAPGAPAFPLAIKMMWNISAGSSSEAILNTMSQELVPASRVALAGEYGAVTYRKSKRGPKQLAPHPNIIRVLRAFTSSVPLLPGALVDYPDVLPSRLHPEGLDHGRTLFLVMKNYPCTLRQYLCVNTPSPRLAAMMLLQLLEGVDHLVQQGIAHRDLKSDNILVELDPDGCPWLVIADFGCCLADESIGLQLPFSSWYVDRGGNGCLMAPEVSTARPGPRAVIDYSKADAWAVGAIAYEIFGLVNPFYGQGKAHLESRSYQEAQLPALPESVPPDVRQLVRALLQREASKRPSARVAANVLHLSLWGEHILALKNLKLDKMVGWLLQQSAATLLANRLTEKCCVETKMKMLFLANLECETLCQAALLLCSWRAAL
PINK1^wt, sequence (Q9BXM7 78-581): as the sequence (Q9BXM7 78-581 G309D) above, with D232G counted along it

| SMILES | 50% Recruitment Times (R50) mCherry Parkin to depolarized mitochondria (PINK1^G309D) | delta co-localization (PINK1^G309D) | delta co-localization (PINK1^G309D; listed as Adenine) | 50% Recruitment Times (R50) mCherry Parkin to depolarized mitochondria (PINK1^wt) | mean change in co-localization (PINK1^wt) | age induced pathological hypertrophy (PINK1wt mice; HBW ratio, cross sectional area, extracellular matrix) | fractional shortening (PINK1wt mice; six month old, echocardiography) | O2 consumption and mitochondrial integrity (PINK1wt mice; treated from birth) | TUNEL staining of the left ventricle (PINK1wt mice; treated from birth) |
| --- | --- | --- | --- | --- | --- | --- | --- | --- | --- |
| Nc1ncnc2nc[nH]c12 [adenine, reference compound] | 23 ± 2 min | 0.076 | 0.075 | 15 ± 1 min | 0.112 and 0.11 |  |  |  |  |
| c1coc(CNc2ncnc3[nH]cnc23)c1 [kinetin] | 15±2 min and 15+2 min | 0.124 and 0.11 |  | 10±2 min and 10+2 min | 0.13 and 0.11 | reduces this age induced pathological hypertrophy | still higher fractional shortening | Improved values | further reduced TUNEL staining |
